Test results: ChEMBL document CHEMBL4342422, “Synthetic strategy and SAR studies of C-glucoside heteroaryls as SGLT2 inhibitor: A review” (Eur J Med Chem, 2019)

What was measured:
[1] = Elimination half life in human at 1 to 25 mg, po; type: ADME; settings: in vivo, read-out: LambdaZ
Homo sapiens [2] = experiment: Antidiabetic activity in human T2DM patients assessed as reduction in HbA1c level at 10 mg, po relative to control; type: functional; parameters: scale not given: the % may be the effect or the level left
Homo sapiens [3] = experiment: Antidiabetic activity in human T2DM patients assessed as reduction in HbA1c level at 25 mg, po relative to control; type: functional; parameters: scale not given: the % may be the effect or the level left
Homo sapiens [4] = experiment: Antidiabetic activity in human T2DM patients assessed as reduction in body weight at 10 to 25 mg, po; type: functional
[5] = Toxicity in human T2DM patients assessed as reduction in systolic blood pressure at 25 mg, po; settings: in vivo
[6] = Toxicity in human T2DM patients assessed as reduction in diastolic blood pressure at 25 mg, po; settings: in vivo
[7] = Half life in human; type: ADME
[8] = Tmax in human at 5 mg, po; type: ADME; settings: in vivo
Homo sapiens [9] = experiment: Antidiabetic activity in human T2DM patients assessed as reduction in HbA1c level at 25 mg, po for 12 weeks relative to control; type: functional; parameters: scale not given: the % may be the effect or the level left
[10] = Toxicity in human T2DM patients assessed as reduction in systolic blood pressure at 5 mg, po for 4 weeks; type: organism-based; settings: in vivo, 672 h
[11] = Toxicity in human T2DM patients assessed as reduction in systolic blood pressure at 10 mg, po for 4 weeks; type: organism-based; settings: in vivo, 672 h
Homo sapiens [12] = experiment: Antidiabetic activity in human T2DM patients assessed as reduction in HbA1c level at 20 mg, po for 24 weeks relative to control; type: functional; parameters: scale not given: the % may be the effect or the level left
Homo sapiens [13] = experiment: Antidiabetic activity in human T2DM patients assessed as reduction in body weight at 20 mg, po for 24 weeks; type: functional
[14] = Toxicity in human T2DM patients assessed as reduction in blood pressure at 20 mg, po for 24 weeks; type: organism-based; settings: in vivo, 4032 h
Homo sapiens [15] = experiment: Antidiabetic activity in human T2DM patients assessed as reduction in HbA1c level at 50 mg, po for 24 weeks relative to control; type: functional; parameters: scale not given: the % may be the effect or the level left
Homo sapiens [16] = experiment: Antidiabetic activity in human T2DM patients assessed as fasting blood glucose level at 50 mg, po for 24 weeks; type: functional
Homo sapiens [17] = experiment: Antidiabetic activity in human T2DM patients assessed as reduction in body weight at 50 mg, po for 24 weeks; type: functional
[18] = Toxicity in human assessed as urinary tract infection at 200 to 400 mg, po for 52 weeks; type: organism-based; settings: in vivo, 8736 h

In the case of `CCOc1ccc(Cc2cc([C@@H]3S[C@H](CO)[C@@H](O)[C@H](O)[C@H]3O)c(OC)cc2C)cc1` [LUSEOGLIFLOZIN], the half-life [1] was 9.2 to 13.8 h.
`OC[C@H]1O[C@@H](c2ccc(Cl)c(Cc3ccc(O[C@@H]4CCOC4)cc3)c2)[C@H](O)[C@@H](O)[C@@H]1O` gave an Activity (Homo sapiens [2]) of 0.929%, an Activity (Homo sapiens [3]) of 1.064% and an Activity (Homo sapiens [4]) of 1.85 kg. It also gave an Activity [5] of 4.19 mmHg, an Activity [6] of -1.04 mmHg and a half-life [7] of 1 h.
With `CCOc1ccc(Cc2cc([C@]34OC[C@](CO)(O3)[C@@H](O)[C@H](O)[C@H]4O)ccc2Cl)cc1` [ERTUGLIFLOZIN] the Tmax [8] was 1 h, the Activity (Homo sapiens [9]) was -0.72% and the Activity [10] was 2.59 to 2.86 mmHg. It also gave an Activity [11] of 2.59 to 2.86 mmHg.
`CCc1ccc(Cc2ccc3c(c2)[C@]2(OC3)O[C@H](CO)[C@@H](O)[C@H](O)[C@H]2O)cc1` [TOFOGLIFLOZIN ANHYDROUS] gave an Activity (Homo sapiens [12]) of 1.017%, an Activity (Homo sapiens [13]) of 2.9 kg and an Activity [14] of 2.1 mmHg.
With `OC[C@H]1O[C@@H](c2ccc(F)c(Cc3cc4ccccc4s3)c2)[C@H](O)[C@@H](O)[C@@H]1O` [IPRAGLIFLOZIN] the Activity (Homo sapiens [15]) was 0.79%, the Activity (Homo sapiens [16]) was 32.89 mg/dL and the Activity (Homo sapiens [17]) was 1.1 kg.
Work on `CCOc1ccc(Cc2cc([C@@H]3O[C@H](SC)[C@@H](O)[C@H](O)[C@H]3O)ccc2Cl)cc1` [SOTAGLIFLOZIN] yielded an Activity [18] of 4.2 to 6.9%.
